Experimental findings from ChEMBL document CHEMBL1149442, “Dual binding mode of a novel series of DHODH inhibitors” (J Med Chem, 2006) are described below.

The target of this experiment is Dihydroorotate dehydrogenase (quinone), mitochondrial (Homo sapiens, UniProt Q02127). Description: Inhibitory activity against human DHODH.
Chain of Dihydroorotate dehydrogenase (quinone), mitochondrial (Q02127 whole entry): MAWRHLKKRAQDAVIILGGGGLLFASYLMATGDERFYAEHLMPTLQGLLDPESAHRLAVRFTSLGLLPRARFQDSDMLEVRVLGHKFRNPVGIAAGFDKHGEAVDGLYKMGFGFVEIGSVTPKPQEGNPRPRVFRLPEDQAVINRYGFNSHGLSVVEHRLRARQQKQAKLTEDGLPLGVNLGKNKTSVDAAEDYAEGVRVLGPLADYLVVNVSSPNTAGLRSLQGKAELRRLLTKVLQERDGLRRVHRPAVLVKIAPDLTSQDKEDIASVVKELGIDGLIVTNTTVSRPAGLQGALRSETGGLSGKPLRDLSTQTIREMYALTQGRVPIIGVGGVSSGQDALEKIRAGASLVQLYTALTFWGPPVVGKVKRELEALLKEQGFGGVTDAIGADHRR

For the compound `O=C(Nc1c(F)cc(-c2cccc(OC(F)(F)F)c2)cc1F)c1ccsc1C(=O)O`, the IC50 (as a rule, the concentration needed to halve the response being measured) came out at 2 nM. That is a single-digit nanomolar value.
